Results on five molecules are retold here after US11248234B2, “Herbicide-resistant hydroxyphenylpyruvate dioxygenases” (BASF SE, priority 2015, dated 2022).

The subject of experiment [1] is T2 Arabidopsis plants expressing mutated variants of Scenedesmus HPPD (all traits and events). Description: Greenhouse spray test, injury evaluation. It is filed as in vivo, Arabidopsis thaliana. The settings on record: for leaf damage: two lowest application rates (1.56 g/ha and 6.25 g/ha). As for the experimental part:
(§1) Non-transgenic control plants were treated in parallel and pictures taken 14 days after treatment.
(§2) For post emergence treatment, the test plants are first grown to a height of 3 to 15 cm, depending on the plant habit, and only then treated with the herbicides. For this purpose, the test plants are either sown directly and grown in the same containers, or they are first grown separately and transplanted into the test containers a few days prior to treatment.
(§3) Additionally, T1 and T2 transgenic Arabidopsis plants can be tested for improved tolerance to HPPD-inhibiting herbicides in greenhouse studies. Herbicide injury scoring is done 2-3 weeks after treatment and is rated on a scale of 0 to 100%, 0% being no injury and 100% being complete death.
(§4) Transgenic T2 Arabidopsis plants were sprayed with a range of doses from 1.56-25 g/ha of different HPPD-inhibiting herbicides and injury evaluations were taken two weeks after treatment (FIG. 4). As depicted in Table 8, control plants were severely injured by all doses of herbicides applied, with at least 58% of leaf material being damaged at the lowest application rate and 100% leaf damage at the second application rate.

Experiment [2] has as its system transgenic Arabidopsis plants (T2) SoHPPD Q317H (short). Description: Greenhouse spray test, injury evaluation. It counts as in vivo, Arabidopsis thaliana. The settings on record: for Injury: 14 DAT. As for the experimental part:
as §1, §2, §3, §4

Experiment [3] relates to transgenic Arabidopsis plants (T2) SoHPPD F363I (short). Description: Greenhouse spray test, injury evaluation. It is filed as in vivo, Arabidopsis thaliana. The settings on record: 14 DAT. As for the experimental part: as §1, §2, §3, §4
Experiment [4] has as its system SoHPPD V251A, H306R, Q317L, A318P, G321P, K331E, L350M (short). As to the kind of experiment: In vitro HPPD activity assay. The following applies: normalized on Arabidopsis wild-type HPPD (SEQ ID NO:42). It is filed as biochemical, Scenedesmus obliquus. As for the experimental part:
(§5) HPPD produces homogentisic acid and CO2 from 4-hydroxyphenylpyruvate (4-HPP) and O2. The activity assay for HPPD is based on the analysis of homogentisic acid by reversed phase HPLC.
(§6) The assay mixture can contain 150 mM potassium phosphate buffer pH 7.0, 50 mM L-ascorbic acid, 100 μM Catalase (Sigma-Aldrich), 1 μM FeSO4 and 0.2 units of purified mutated HPPD enzyme in a total volume of 505 μl. 1 unit is defined as the amount of enzyme that is required to produce 1 nmol of HGA per minute at 20° C.
(§7) After a preincubation of 30 min the reaction is started by adding 4-HPP to a final concentration of 0.05 mM. The reaction is allowed to proceed for 45 min at room temperature. The reaction is stopped by the addition of 50 μl of 4.5 M phosphoric acid. The sample is filtered using a […] pore size PVDF filtration device.
(§8) 5 μl of the cleared sample is analyzed on an UPLC HSS T3 column (particle size 1.8 μm, dimensions 2.1×50 mm; Waters) by isocratic elution using 90% 20 mM NaH2PO4 pH 2.2, 10% methanol (v/v).
(§9) HGA is detected electrochemically at 750 mV (mode: DC; polarity: positive) and quantified by integrating peak areas (Empower software; Waters).
(§10) Inhibitors are dissolved in DMSO (dimethylsulfoxide) to a concentration of 0.5 mM. From this stock solution serial five-fold dilutions are prepared in DMSO, which are used in the assay. The respective inhibitor solution accounts for 1% of the assay volume. Thus, final inhibitor concentrations range from 5 μM to 320 pM, respectively. Activities are normalized by setting the uninhibited enzyme activity to 100%. IC50 values are calculated using non-linear regression.
(§11) Using methods which are described in the above examples or well known in the art, purified, recombinant mutated HPPD enzymes are characterized with respect to their kinetic properties and sensitivity towards HPPD inhibiting herbicides. Apparent michaelis constants (Km) and maximal reaction velocities (Vmax) are calculated by non-linear regression with the software GraphPad Prism 5 (GraphPad Software, La Jolla, USA) using a substrate inhibition model. Apparent kcat values are calculated from Vmax assuming 100% purity of the enzyme preparation. Weighted means (by standard error) of Km and IC50 values are calculated from at least three independent experiments. The Cheng-Prusoff equation for competitive inhibition (Cheng, Y. C.; Prusoff, W. H. Biochem Pharmacol 1973, 22, 3099-3108) is used to calculate dissociation constants (Ki).
(§12) Field performance of the HPPD enzyme, which is used as a herbicide tolerance trait may depend not only on its lack of sensitivity towards HPPD inhibiting herbicides but also on its activity. To assess the potential performance of a herbicide tolerance trait a tolerance index (TI) is calculated using the following formula: […]
(§13) Easy comparison and ranking of each trait is enabled by normalizing tolerance indexes on Arabidopsis wild-type HPPD.

Experiment [5] concerns SoHPPD I455V. As to the kind of experiment: In vitro HPPD activity assay. The settings on record: normalized on Arabidopsis wild-type HPPD (SEQ ID NO:42). It counts as biochemical, Scenedesmus obliquus. On the procedure: as §5, §6, §7, §8, §9, §10, §11, §12, §13
In experiment [6] the test system is SoHPPD I419V (short). Description: In vitro HPPD activity assay. It counts as biochemical, Scenedesmus obliquus. The following applies: normalized on Arabidopsis wild-type HPPD (SEQ ID NO:42). On the procedure:
as §5, §6, §7, §8, §9, §10, §11, §12, §13

The subject of experiment [7] is SoHPPD V251A (short). As to the kind of experiment: In vitro HPPD activity assay. It counts as biochemical, Scenedesmus obliquus. The settings on record: normalized on Arabidopsis wild-type HPPD (SEQ ID NO:42). On the procedure: as §5, §6, §7, §8, §9, §10, §11, §12, §13
Experiment [8] has as its system SoHPPD Q317M (short). Description: In vitro HPPD activity assay. It is filed as biochemical, Scenedesmus obliquus. The settings on record: normalized on Arabidopsis wild-type HPPD (SEQ ID NO:42). As for the experimental part: as §5, §6, §7, §8, §9, §10, §11, §12, §13
Experiment [9] has as its system SoHPPD E345Q, K326D (short). Description: In vitro HPPD activity assay. It counts as biochemical, Scenedesmus obliquus. The settings on record: normalized on Arabidopsis wild-type HPPD (SEQ ID NO:42). As for the experimental part:
as §5, §6, §7, §8, §9, §10, §11, §12, §13

Experiment [10] deals with SoHPPD Q317H (short). Description: In vitro HPPD activity assay. It counts as biochemical, Scenedesmus obliquus. The following applies: normalized on Arabidopsis wild-type HPPD (SEQ ID NO:42). As for the experimental part:
as §5, §6, §7, §8, §9, §10, §11, §12, §13

Experiment [11] relates to SoHPPD Q317H, A318G, E345Q. Description: In vitro HPPD activity assay. The following applies: normalized on Arabidopsis wild-type HPPD (SEQ ID NO:42). It counts as biochemical, Scenedesmus obliquus. As for the experimental part: as §5, §6, §7, §8, §9, §10, §11, §12, §13
Experiment [12] deals with SoHPPD E345Q, K326Q (short). As to the kind of experiment: In vitro HPPD activity assay. It counts as biochemical, Scenedesmus obliquus. The settings on record: normalized on Arabidopsis wild-type HPPD (SEQ ID NO:42). On the procedure:
as §5, §6, §7, §8, §9, §10, §11, §12, §13

In experiment [13] the test system is SoHPPD E345Q (short). As to the kind of experiment: In vitro HPPD activity assay. It is filed as biochemical, Scenedesmus obliquus. The following applies: normalized on Arabidopsis wild-type HPPD (SEQ ID NO:42). On the procedure:
as §5, §6, §7, §8, §9, §10, §11, §12, §13

Experiment [14] concerns SoHPPD F363I (short). Description: In vitro HPPD activity assay. It counts as biochemical, Scenedesmus obliquus. The following applies: normalized on Arabidopsis wild-type HPPD (SEQ ID NO:42). As for the experimental part: as §5, §6, §7, §8, §9, §10, §11, §12, §13
Experiment [15] concerns SoHPPD F39W, L367V, I375L (short). As to the kind of experiment: In vitro HPPD activity assay. It is filed as biochemical, Scenedesmus obliquus. The following applies: normalized on Arabidopsis wild-type HPPD (SEQ ID NO:42). As for the experimental part:
as §5, §6, §7, §8, §9, §10, §11, §12, §13

The subject of experiment [16] is SoHPPD L367V, I375L (short). As to the kind of experiment: In vitro HPPD activity assay. It counts as biochemical, Scenedesmus obliquus. The following applies: normalized on Arabidopsis wild-type HPPD (SEQ ID NO:42). On the procedure: as §5, §6, §7, §8, §9, §10, §11, §12, §13

“Also recorded” adds a separate entry of the source.

Turning to `Cc1c(C(=O)c2cnn(C)c2O)ccc(S(C)(=O)=O)c1C1=NOCC1` [Inhibitor 1, [3-(4,5-dihydroisoxazol-3-yl)-2-methyl-4-methylsulfonyl-phenyl]-(5-hydroxy-1-methyl-pyrazol-4-yl)methanone], the “leaf material being damaged” value in experiment [1] (25 g/ha) is “less than 20%”. Besides, in experiment [1], the leaf damage was 0-8%. The Injury in experiment [2] (Event B, 1.56 g ai/ha) is given as 0%; in experiment [2] (Event B, 6.25 g ai/ha), 0%; in experiment [2] (Event B, 25 g ai/ha) it was 18%; in experiment [2] (Event C, 1.56 g ai/ha), 0%; in experiment [2] (Event C, 6.25 g ai/ha), 0%; in experiment [2] (Event C, 25 g ai/ha), 10%. In addition, the Injury is 0% in experiment [3] (Event B, 1.56 g ai/ha); 0% in experiment [3] (Event B, 6.25 g ai/ha); 0% in [3] (Event B, 25 g ai/ha); 0% in experiment [3] (Event C, 1.56 g ai/ha); 0% in experiment [3] (Event C, 6.25 g ai/ha); 0% in [3] (Event C, 25 g ai/ha).

Take `CCSc1ccc(Cl)c(C(=O)Nc2nnnn2C)c1Cl` [Inhibitor 8, 2,6-dichloro-3-ethylsulfanyl-N-(1-methyltetrazol-5-yl)benzamide]: the “TI (normalized tolerance index)” value in experiment [4] came out at 0.2; in [5] it was 0.3; in experiment [6], 0.3; in [7] it was 0.1; in experiment [8] it was 0.8; in experiment [9], 0.3. Moreover, the “TI (normalized tolerance index)” value is on record as 0.5 in [10]; 0.1 in experiment [11]; 0.3 in experiment [12]; 0.5 in experiment [13]; “not inhibited; also recorded: no inhi-” in experiment [14]; 0.5 in experiment [15]. Also, in [16], the “TI (normalized tolerance index)” value came to 0.7.

In the case of `CS(=O)(=O)c1ccc(C(=O)C2C(=O)CCCC2=O)c([N+](=O)[O-])c1` [Inhibitor 2, 2-(4-methylsulfonyl-2-nitro-benzoyl)cyclohexane-1,3-dione], the leaf damage entry in experiment [1] is listed as “did not show leaf injury”. Also, in [2] (25 g ai/ha, average of events), the “average damage (leaf injury)” value was 34%. Moreover, the Injury was determined as 0% in experiment [2] (Event B, 1.56 g ai/ha); 0% in [2] (Event B, 6.25 g ai/ha); 33% in experiment [2] (Event B, 25 g ai/ha); 0% in experiment [2] (Event C, 1.56 g ai/ha); 3% in experiment [2] (Event C, 6.25 g ai/ha); 35% in [2] (Event C, 25 g ai/ha). Besides, the Injury in [3] (Event B, 1.56 g ai/ha) came to 0%; in experiment [3] (Event B, 6.25 g ai/ha) it was 0%; in experiment [3] (Event B, 25 g ai/ha) it was 3%; in experiment [3] (Event C, 1.56 g ai/ha), 5%; in [3] (Event C, 6.25 g ai/ha) it was 0%; in experiment [3] (Event C, 25 g ai/ha), 0%. The “TI (normalized tolerance index)” value in [4] is given as 0.7; in [5] it was 0.1; in experiment [6] it was 0.1; in experiment [7], 0.0; in [8] it was 0.6; in experiment [9], 0.1. For the same molecule, the “TI (normalized tolerance index)” value in experiment [10] is given as 0.2; in experiment [11], 0.1; in [12], 0.1; in [13], 0.5; in [14], 0.8; in [15] it was 0.0. In addition, in experiment [16], the “TI (normalized tolerance index)” value came out at 0.0.

Turning to `CC(=O)N(C)c1c(Cl)ccc(C2=C(O)c3ncccc3C(C)(C)S2(=O)=O)c1Cl` [Inhibitor 5, N-[2,6-dichloro-3-(8-hydroxy-5,5-dimethyl-6,6-dioxo-thiopyrano[4,3-b]pyridin-7-yl)phenyl]-N-methyl-acetamide], the “TI (normalized tolerance index)” value amounted to 0.3 in experiment [4]; 0.7 in [5]; 0.1 in [6]; 0.0 in experiment [7]; 0.9 in [8]; 0.2 in [9]. The “TI (normalized tolerance index)” value in experiment [10] worked out at 0.4; in experiment [11] it was 0.2; in experiment [12], 0.2; in experiment [13] it was 0.2; in experiment [14], 0.6; in experiment [15] it was 0.1. In [16], the “TI (normalized tolerance index)” value is on record as 0.3.

On to `CCS(=O)(=O)c1cc(C(F)(F)F)ccc1C1=C(O)c2ncccc2C(C)(C)S1(=O)=O` [Inhibitor 4, 7-[2-ethylsulfonyl-4-(trifluoromethyl)phenyl]-5,5-dimethyl-6,6-dioxo-thiopyrano[4,3-b]pyridin-8-ol], for which the “TI (normalized tolerance index)” value in experiment [4] stood at 0.0; in [5] it was 0.5; in experiment [6], 0.3; in experiment [7], 0.0; in experiment [8] it was 1.3; in [9], 0.0. The “TI (normalized tolerance index)” value in experiment [10] is 0.6; in [11], 0.4; in [12], 0.0; in experiment [13], 0.3; in experiment [14], 0.3; in experiment [15], 0.2. Moreover, the “TI (normalized tolerance index)” value in [16] came out at 0.3.
